# Data reported in US8937064B2, “Pyrazolo[1,5-a]pyrimidines useful as JAK2 inhibitors” (Vertex Pharmaceuticals Incorporated, priority 2007, dated 2015).
# Target: T1, JAK3 (Homo sapiens, UniProt P52333)
# T1 sequence (P52333 1-1124): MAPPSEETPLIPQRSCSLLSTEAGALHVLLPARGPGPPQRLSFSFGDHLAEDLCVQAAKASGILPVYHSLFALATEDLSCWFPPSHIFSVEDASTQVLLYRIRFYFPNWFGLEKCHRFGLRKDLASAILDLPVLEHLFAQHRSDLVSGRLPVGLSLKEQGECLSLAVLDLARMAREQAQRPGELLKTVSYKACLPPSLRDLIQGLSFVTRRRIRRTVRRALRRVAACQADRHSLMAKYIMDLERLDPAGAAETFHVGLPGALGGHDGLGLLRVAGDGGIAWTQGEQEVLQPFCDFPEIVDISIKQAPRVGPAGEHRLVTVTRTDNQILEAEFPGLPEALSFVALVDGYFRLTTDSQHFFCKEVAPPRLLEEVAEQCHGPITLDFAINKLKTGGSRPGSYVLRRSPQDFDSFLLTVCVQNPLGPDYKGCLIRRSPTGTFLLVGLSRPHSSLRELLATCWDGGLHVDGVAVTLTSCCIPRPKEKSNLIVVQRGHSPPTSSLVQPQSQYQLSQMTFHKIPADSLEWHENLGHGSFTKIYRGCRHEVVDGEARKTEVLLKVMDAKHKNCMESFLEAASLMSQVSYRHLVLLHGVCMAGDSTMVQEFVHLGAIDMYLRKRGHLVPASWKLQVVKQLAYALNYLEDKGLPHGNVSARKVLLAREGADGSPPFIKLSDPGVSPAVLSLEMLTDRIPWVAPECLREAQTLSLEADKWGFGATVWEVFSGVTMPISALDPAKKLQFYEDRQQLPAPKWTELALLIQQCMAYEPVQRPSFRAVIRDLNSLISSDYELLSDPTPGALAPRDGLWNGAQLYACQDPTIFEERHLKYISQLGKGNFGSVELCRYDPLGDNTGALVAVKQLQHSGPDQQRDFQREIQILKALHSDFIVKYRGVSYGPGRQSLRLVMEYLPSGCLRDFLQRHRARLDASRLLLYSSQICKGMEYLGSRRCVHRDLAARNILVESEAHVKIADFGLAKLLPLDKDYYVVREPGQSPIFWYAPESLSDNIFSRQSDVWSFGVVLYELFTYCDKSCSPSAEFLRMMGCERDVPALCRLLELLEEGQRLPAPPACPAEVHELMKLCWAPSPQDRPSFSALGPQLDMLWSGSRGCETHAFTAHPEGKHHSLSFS
# Experiment: JAK3 Inhibition Assay
# Type: biochemical
# Conditions: 1 nM JAK3, 1 μM poly(Glu)4Tyr, 5 μM ATP, 25° C., 33P incorporation
row,SMILES,Ki [nM]
1,CC(C)Oc1nc(N[C@@H](C)c2ccc(F)cc2F)cc(-c2c(N)nn3cccnc23)n1 [Compound 129],100 to 500
2,C[C@H](Nc1cc(-c2cnn3cccnc23)nc(OCCOCCN2CCNCC2)n1)c1ccc(F)cc1F [Compound 203],100 to 500
3,COCCN(C)c1nc(N[C@@H](C)c2ccc(F)cc2F)cc(-c2c(N)nn3cccnc23)n1 [Compound 133],100 to 500
4,CCC[C@@H](Nc1cc(-c2cnn3cccnc23)ncn1)c1ccc(F)cc1F [Compound 123],100 to 500
5,CC(C)OCCOc1nc(N[C@@H](C)c2ccc(F)cc2)cc(-c2c(N)nn3cccnc23)n1 [Compound 149],10 to 100
6,COCCC(=O)Nc1nc(N[C@@H](C)c2ccc(F)cc2F)cc(-c2cnn3cccnc23)n1 [Compound 184],100 to 500
7,COc1nc(N[C@@H](C)c2ccc(F)cc2F)cc(-c2c(N)nn3cccnc23)n1 [Compound 132],< 10
8,C[C@H](Nc1cc(-c2c(N)nn3cccnc23)nc(OCC2CCOC2)n1)c1ccc(F)cc1F (stereo partly drawn) [Compound 130],10 to 100
9,COCCOc1nc(N[C@@H](C)c2ccc(F)cc2)cc(-c2c(N)nn3cccnc23)n1 [Compound 108],10 to 100
10,CC#CCOc1nc(N[C@@H](C)c2ccc(F)cc2)cc(-c2c(N)nn3cccnc23)n1 [Compound 151],100 to 500
11,C[C@H](Nc1cc(-c2c(N)nn3cccnc23)nc(OCC2(C)CC2)n1)c1ccc(F)cc1 [Compound 143],100 to 500
12,CSCCOc1nc(N[C@@H](C)c2ccc(F)cc2)cc(-c2c(N)nn3cccnc23)n1 [Compound 173],10 to 100
13,C=CCCOc1nc(N[C@@H](C)c2ccc(F)cc2)cc(-c2c(N)nn3cccnc23)n1 [Compound 170],10 to 100
14,CC(C)[C@@H](Nc1cc(-c2c(N)nn3cccnc23)nc(S(C)(=O)=O)n1)c1ccc(F)cc1F [Compound 113],500 to 5000
15,CCC[C@H](Nc1cc(-c2cnn3cccnc23)ncn1)c1ccc(F)cc1 [Compound 116],10 to 100
16,C[C@H](Nc1cc(-c2c(N)nn3cccnc23)nc(OCC2CCOC2)n1)c1ccc(F)cc1 (stereo partly drawn) [Compound 164],10 to 100
17,C[C@H](Nc1cc(-c2c(N)nn3cccnc23)nc(NCCN2CCOCC2)n1)c1ccc(F)cc1 [Compound 124],10 to 100
18,CSc1nc(N[C@@H](C)c2ccc(F)cc2)cc(-c2c(N)nn3cccnc23)n1 [Compound 92],10 to 100

row,SMILES,Ki [nM]
1,Nc1nn2cccnc2c1-c1cc(N2Cc3ccccc3C2)ncn1 [Compound 27],100 to 500
2,C[C@H](Nc1cc(-c2cnn3cccnc23)nc(OCC(C)(C)N(C)C)n1)c1ccc(F)cc1F [Compound 193],100 to 500
3,CNCCOc1nc(N[C@@H](C)c2ccc(F)cc2F)cc(-c2cnn3cccnc23)n1 [Compound 199],10 to 100
4,C[C@H](Nc1cc(-c2c(N)nn3cccnc23)nc(N2CC[C@@H](F)C2)n1)c1ccc(F)cc1 [Compound 189],100 to 500
5,O=C(Nc1ccnc(-c2cnn3cccnc23)c1)c1ccc(F)cc1 [Compound 227],500 to 5000
6,C[C@H](Nc1cc(-c2cnn3cccnc23)nc(OCCN(C)C)n1)c1ccc(F)cc1F [Compound 197],10 to 100
7,C[C@H](Nc1cc(-c2cnn3cccnc23)ncn1)c1ccc(F)c(F)c1 [Compound 118],10 to 100
8,CCC[C@H](Nc1cc(-c2c(N)nn3ccc(C(F)(F)F)nc23)ncn1)c1ccc(F)cc1F [Compound 137],100 to 500
9,C[C@H](Nc1cc(-c2c(N)nn3cccnc23)nc(S(C)(=O)=O)n1)c1ccc(F)cc1F [Compound 111],< 10
10,Nc1nn2cccnc2c1-c1cc(OCc2ccc(C(F)(F)F)cc2)ncn1 [Compound 72],> 5000
11,CSCCCOc1nc(N[C@@H](C)c2ccc(F)cc2)cc(-c2c(N)nn3cccnc23)n1 [Compound 172],10 to 100
12,CC#CCCOc1nc(N[C@@H](C)c2ccc(F)cc2)cc(-c2c(N)nn3cccnc23)n1 [Compound 155],100 to 500
13,CC(C#N)Oc1nc(N[C@@H](C)c2ccc(F)cc2F)cc(-c2cnn3cccnc23)n1 (stereo partly drawn) [Compound 201],10 to 100
14,CC[C@@H](Nc1cc(-c2c(N)nn3cccnc23)ncn1)c1ccc(F)cc1F [Compound 88],10 to 100
15,CC[C@H](Nc1cc(-c2c(N)nn3ccc(C)nc23)ncn1)c1ccc(F)c(F)c1 [Compound 94],10 to 100
16,C[C@H](Nc1cc(-c2cnn3cccnc23)ncn1)c1ccc(F)cc1 [Compound 114],10 to 100
17,C[C@H](Nc1cc(-c2cnn3cccnc23)nc(OCC2CCCC2)n1)c1ccc(F)cc1F [Compound 223],100 to 500
18,CC(C)[C@H](Nc1cc(-c2cnn3cccnc23)ncn1)c1ccc(F)cc1F [Compound 121],10 to 100

# Target: JAK-2 enzyme (Homo sapiens, UniProt O60674)
# Experiment: JAK2 Inhibition Assay
# Conditions: not given
# Sequence of JAK-2 enzyme (O60674 whole entry): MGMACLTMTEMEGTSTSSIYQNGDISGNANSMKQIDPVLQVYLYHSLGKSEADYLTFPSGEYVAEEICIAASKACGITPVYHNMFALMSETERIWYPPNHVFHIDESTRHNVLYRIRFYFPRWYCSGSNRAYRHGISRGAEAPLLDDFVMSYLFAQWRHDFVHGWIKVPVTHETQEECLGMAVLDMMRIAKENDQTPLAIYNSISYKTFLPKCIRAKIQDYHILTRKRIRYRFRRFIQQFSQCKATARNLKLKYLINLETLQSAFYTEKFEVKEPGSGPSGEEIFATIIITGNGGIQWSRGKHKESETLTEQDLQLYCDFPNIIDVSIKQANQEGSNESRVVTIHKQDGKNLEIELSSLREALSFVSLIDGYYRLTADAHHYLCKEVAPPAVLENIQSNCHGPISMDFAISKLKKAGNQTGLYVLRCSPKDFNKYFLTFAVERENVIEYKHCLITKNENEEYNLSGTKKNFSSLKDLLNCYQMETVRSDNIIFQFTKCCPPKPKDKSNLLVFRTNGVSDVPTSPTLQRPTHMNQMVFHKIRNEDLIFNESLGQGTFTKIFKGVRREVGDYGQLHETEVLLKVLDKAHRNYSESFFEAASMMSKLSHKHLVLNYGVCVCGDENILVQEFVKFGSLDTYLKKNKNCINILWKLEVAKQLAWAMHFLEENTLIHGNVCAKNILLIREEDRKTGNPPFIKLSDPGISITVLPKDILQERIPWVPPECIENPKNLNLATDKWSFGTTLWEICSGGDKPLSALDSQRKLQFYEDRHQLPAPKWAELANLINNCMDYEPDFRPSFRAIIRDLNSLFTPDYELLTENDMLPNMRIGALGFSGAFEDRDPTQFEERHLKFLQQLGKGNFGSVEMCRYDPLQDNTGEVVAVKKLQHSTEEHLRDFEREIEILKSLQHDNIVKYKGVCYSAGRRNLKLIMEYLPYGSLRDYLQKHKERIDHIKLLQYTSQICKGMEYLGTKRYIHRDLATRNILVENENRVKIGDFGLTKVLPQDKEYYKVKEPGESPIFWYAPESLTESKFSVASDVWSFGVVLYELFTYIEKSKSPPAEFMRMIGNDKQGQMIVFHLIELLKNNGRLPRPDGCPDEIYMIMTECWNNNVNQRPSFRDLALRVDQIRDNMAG
row,SMILES,Ki [nM]
1,CC(C)Oc1nc(N[C@@H](C)c2ccc(F)cc2F)cc(-c2c(N)nn3cccnc23)n1 [Compound 129],10 to 100
2,C[C@H](Nc1cc(-c2cnn3cccnc23)nc(OCCOCCN2CCNCC2)n1)c1ccc(F)cc1F [Compound 203],10 to 100
3,COCCN(C)c1nc(N[C@@H](C)c2ccc(F)cc2F)cc(-c2c(N)nn3cccnc23)n1 [Compound 133],10 to 100
4,CCC[C@@H](Nc1cc(-c2cnn3cccnc23)ncn1)c1ccc(F)cc1F [Compound 123],10 to 100
5,CC(C)OCCOc1nc(N[C@@H](C)c2ccc(F)cc2)cc(-c2c(N)nn3cccnc23)n1 [Compound 149],< 10
6,COCCC(=O)Nc1nc(N[C@@H](C)c2ccc(F)cc2F)cc(-c2cnn3cccnc23)n1 [Compound 184],< 10
7,COc1nc(N[C@@H](C)c2ccc(F)cc2F)cc(-c2c(N)nn3cccnc23)n1 [Compound 132],< 10
8,C[C@H](Nc1cc(-c2c(N)nn3cccnc23)nc(OCC2CCOC2)n1)c1ccc(F)cc1F (stereo partly drawn) [Compound 130],< 10
9,COCCOc1nc(N[C@@H](C)c2ccc(F)cc2)cc(-c2c(N)nn3cccnc23)n1 [Compound 108],< 10
10,CC#CCOc1nc(N[C@@H](C)c2ccc(F)cc2)cc(-c2c(N)nn3cccnc23)n1 [Compound 151],10 to 100
11,C[C@H](Nc1cc(-c2c(N)nn3cccnc23)nc(OCC2(C)CC2)n1)c1ccc(F)cc1 [Compound 143],10 to 100
12,CSCCOc1nc(N[C@@H](C)c2ccc(F)cc2)cc(-c2c(N)nn3cccnc23)n1 [Compound 173],< 10
13,C=CCCOc1nc(N[C@@H](C)c2ccc(F)cc2)cc(-c2c(N)nn3cccnc23)n1 [Compound 170],< 10
14,CC(C)[C@@H](Nc1cc(-c2c(N)nn3cccnc23)nc(S(C)(=O)=O)n1)c1ccc(F)cc1F [Compound 113],100 to 500
15,CCC[C@H](Nc1cc(-c2cnn3cccnc23)ncn1)c1ccc(F)cc1 [Compound 116],< 10
16,C[C@H](Nc1cc(-c2c(N)nn3cccnc23)nc(OCC2CCOC2)n1)c1ccc(F)cc1 (stereo partly drawn) [Compound 164],< 10
17,C[C@H](Nc1cc(-c2c(N)nn3cccnc23)nc(NCCN2CCOCC2)n1)c1ccc(F)cc1 [Compound 124],< 10
18,CSc1nc(N[C@@H](C)c2ccc(F)cc2)cc(-c2c(N)nn3cccnc23)n1 [Compound 92],< 10

row,SMILES,Ki [nM]
1,Nc1nn2cccnc2c1-c1cc(N2Cc3ccccc3C2)ncn1 [Compound 27],10 to 100
2,C[C@H](Nc1cc(-c2cnn3cccnc23)nc(OCC(C)(C)N(C)C)n1)c1ccc(F)cc1F [Compound 193],< 10
3,CNCCOc1nc(N[C@@H](C)c2ccc(F)cc2F)cc(-c2cnn3cccnc23)n1 [Compound 199],< 10
4,C[C@H](Nc1cc(-c2c(N)nn3cccnc23)nc(N2CC[C@@H](F)C2)n1)c1ccc(F)cc1 [Compound 189],< 10
5,O=C(Nc1ccnc(-c2cnn3cccnc23)c1)c1ccc(F)cc1 [Compound 227],100 to 500
6,C[C@H](Nc1cc(-c2cnn3cccnc23)nc(OCCN(C)C)n1)c1ccc(F)cc1F [Compound 197],< 10
7,C[C@H](Nc1cc(-c2cnn3cccnc23)ncn1)c1ccc(F)c(F)c1 [Compound 118],< 10
8,CCC[C@H](Nc1cc(-c2c(N)nn3ccc(C(F)(F)F)nc23)ncn1)c1ccc(F)cc1F [Compound 137],100 to 500
9,C[C@H](Nc1cc(-c2c(N)nn3cccnc23)nc(S(C)(=O)=O)n1)c1ccc(F)cc1F [Compound 111],< 10
10,Nc1nn2cccnc2c1-c1cc(OCc2ccc(C(F)(F)F)cc2)ncn1 [Compound 72],100 to 500
11,CSCCCOc1nc(N[C@@H](C)c2ccc(F)cc2)cc(-c2c(N)nn3cccnc23)n1 [Compound 172],< 10
12,CC#CCCOc1nc(N[C@@H](C)c2ccc(F)cc2)cc(-c2c(N)nn3cccnc23)n1 [Compound 155],< 10
13,CC(C#N)Oc1nc(N[C@@H](C)c2ccc(F)cc2F)cc(-c2cnn3cccnc23)n1 (stereo partly drawn) [Compound 201],< 10
14,CC[C@@H](Nc1cc(-c2c(N)nn3cccnc23)ncn1)c1ccc(F)cc1F [Compound 88],< 10
15,CC[C@H](Nc1cc(-c2c(N)nn3ccc(C)nc23)ncn1)c1ccc(F)c(F)c1 [Compound 94],< 10
16,C[C@H](Nc1cc(-c2cnn3cccnc23)ncn1)c1ccc(F)cc1 [Compound 114],< 10
17,C[C@H](Nc1cc(-c2cnn3cccnc23)nc(OCC2CCCC2)n1)c1ccc(F)cc1F [Compound 223],10 to 100
18,CC(C)[C@H](Nc1cc(-c2cnn3cccnc23)ncn1)c1ccc(F)cc1F [Compound 121],< 10
